From patent US10414811B2, “Protease-resistant lipidated GLP-1 analogs” (MEDIMMUNE LIMITED, priority 2015, dated 2019) come the findings set out here.

The EC50 is the concentration giving half of the maximal effect.

Where two headings read alike, the source gives them in different places. Numbered stars: 1 amine (or outer) side, 2 acyl side, 3 side chain; on linkers, the order of the positions; unused ones are H or OH. Square brackets hold non-standard residues; d marks the D form. Side chains are listed from the residue outwards. Peptide text beside a SMILES is read from it. * marks the point of attachment. γGlu = O=C(O)[C@H](CCC(=O)[*:2])N[*:1]; αMeF = C[C@](N)(Cc1ccccc1)C(=O)O; αMeK = C[C@](N)(CCCCN)C(=O)O; Lauroyl = CCCCCCCCCCCC(=O)*; AEEA = NCCOCCOCC(=O)O; Aib = CC(C)(N)C(=O)O

What all share (type): cell-based
In test [1] the target is T1, human glucose-dependent insulinotropic peptide receptor (GIPR) (Homo sapiens, UniProt P48546).
T1 construct: expressed in transfected cells
T1 sequence (P48546 22-466): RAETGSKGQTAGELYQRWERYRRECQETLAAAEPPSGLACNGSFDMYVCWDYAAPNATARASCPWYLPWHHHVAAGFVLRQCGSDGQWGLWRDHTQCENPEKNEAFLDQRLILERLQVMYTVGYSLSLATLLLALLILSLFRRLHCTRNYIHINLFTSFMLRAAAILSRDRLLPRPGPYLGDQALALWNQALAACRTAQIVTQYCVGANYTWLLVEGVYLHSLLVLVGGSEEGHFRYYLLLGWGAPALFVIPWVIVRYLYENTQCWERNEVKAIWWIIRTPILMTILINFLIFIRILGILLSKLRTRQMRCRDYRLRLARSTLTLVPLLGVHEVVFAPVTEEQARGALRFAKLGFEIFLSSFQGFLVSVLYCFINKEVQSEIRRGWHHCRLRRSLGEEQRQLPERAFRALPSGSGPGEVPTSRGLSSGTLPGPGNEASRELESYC
The test can be described thus: cAMP assay, human GIPR cells. Conditions: cAMP assay. On the procedure:
(§1) Sample dilutions are made in duplicate.
(§2) A frozen cryo-vial of cells expressing the receptor of interest is thawed rapidly in a water-bath, transferred to pre-warmed assay buffer and spun at 240×g for 5 minutes. Cells are re-suspended in assay buffer at a batch-dependent optimized concentration (e.g. hGCGR cells at 2×10^5 cells/ml, hGLP-1R and hGIPR cells at 1×10^5 cells/ml).
(§3) To this, 5 μL cell suspension is added and the plates incubated at room temperature for 30 minutes.
(§4) cAMP levels are measured using a commercially available cAMP dynamic 2 HTRF kit (Cisbio, Cat #62AM4PEJ), following the two step protocol as per manufacturer's recommendations. In brief; anti-cAMP cryptate (donor fluorophore) and cAMP-d2 (acceptor fluorophore) are made up separately by diluting each 1/20 in conjugate & lysis buffer provided in the kit. 5 μL anti-cAMP cryptate is added to wells of the assay plate, and 5 μL cAMP-d2 is added to wells except non-specific binding (NSB) wells, to which conjugate and lysis buffer are added. […] EC50 values of the synthetic peptides determined in cAMP assays are then determined.
(§5) Data is transformed to % Delta F as described in the manufacturer's guidelines and analyzed by 4-parameter logistic fit to determine EC50 values. […] To compare the balance of activities at the GLP-1R and GCGR between different peptides and across different conditions, these can be correlated, where the EC50's are related to those of comparator peptides.
A general note: Cyclic AMP is a second messenger, typically raised through Gs and lowered through Gi signalling.

In test [2] the target is T2, human glucagon receptor (GCGR) (Homo sapiens, UniProt P47871).
T2 construct: expressed in transfected cells
T2 sequence (P47871 26-477): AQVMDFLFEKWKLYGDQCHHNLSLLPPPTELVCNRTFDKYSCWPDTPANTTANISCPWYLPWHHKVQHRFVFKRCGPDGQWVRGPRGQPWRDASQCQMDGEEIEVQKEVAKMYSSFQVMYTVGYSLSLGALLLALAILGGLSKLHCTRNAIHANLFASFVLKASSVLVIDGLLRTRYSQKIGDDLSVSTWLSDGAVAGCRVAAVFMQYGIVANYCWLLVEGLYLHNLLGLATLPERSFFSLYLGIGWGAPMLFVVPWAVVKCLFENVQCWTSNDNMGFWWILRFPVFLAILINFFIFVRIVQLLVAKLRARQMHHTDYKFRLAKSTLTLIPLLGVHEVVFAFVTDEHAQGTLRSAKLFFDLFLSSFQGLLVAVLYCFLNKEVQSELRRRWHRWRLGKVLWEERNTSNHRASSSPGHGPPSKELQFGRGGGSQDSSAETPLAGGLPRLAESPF
The test can be described thus: cAMP assay, human GCGR cells. Particulars: cAMP assay. As to the method: as §1, §2, §3, §4, §5

Test [3] has as its target T3, human GLP-1 receptor (GLP-1R) (Homo sapiens, UniProt P43220).
T3 construct: expressed in transfected cells
The test can be described thus: cAMP assay, human GLP-1R cells. Conditions: bis-lipidated peptides. On the procedure:
as §1, §2, §3, §4, §5

[4] abbreviates: first determination (n1), read-out: Primary assay EC50 GIP-R (n1).
Setting [5] is: second determination (n2), read-out: Primary assay EC50 GIP-R (n2).
[6] abbreviates: first determination (n1), read-out: Primary assay EC50 Gluc-R (n1).
The mark [7] stands for this setting: second determination (n2), read-out: Primary assay EC50 Gluc-R (n2).
Setting [8] is: mean of n1 and n2, read-out: Primary assay EC50 Mean pM GLP-1R.
Where [9] appears, read: replicate n1, read-out: Primary assay EC50 GLP-1R n1.
The mark [10] stands for this setting: replicate n2, read-out: Primary assay EC50 GLP-1R n2.

T3 sequence (P43220 24-463): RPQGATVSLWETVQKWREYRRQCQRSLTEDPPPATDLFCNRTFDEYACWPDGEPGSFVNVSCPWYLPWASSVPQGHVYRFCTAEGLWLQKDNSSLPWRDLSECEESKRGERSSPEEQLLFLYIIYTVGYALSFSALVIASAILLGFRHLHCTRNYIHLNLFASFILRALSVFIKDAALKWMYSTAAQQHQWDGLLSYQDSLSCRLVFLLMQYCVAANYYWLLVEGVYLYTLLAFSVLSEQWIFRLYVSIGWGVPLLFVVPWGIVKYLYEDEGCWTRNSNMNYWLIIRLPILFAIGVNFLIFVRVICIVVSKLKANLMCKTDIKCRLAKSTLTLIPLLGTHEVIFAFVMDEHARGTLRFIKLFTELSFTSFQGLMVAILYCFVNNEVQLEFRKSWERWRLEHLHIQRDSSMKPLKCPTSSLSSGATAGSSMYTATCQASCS

For the compound `CC[C@H](C)[C@H](NC(=O)[C@](C)(Cc1ccccc1)NC(=O)[C@H](CCC(=O)O)NC(=O)[C@](C)(CCCCN)NC(=O)[C@H](C)NC(=O)[C@H](C)NC(=O)[C@H](CCC(=O)O)NC(=O)CNC(=O)[C@H](CCC(=O)O)NC(=O)[C@H](CC(C)C)NC(=O)[C@](C)(Cc1ccccc1)NC(=O)[C@H](CO)NC(=O)[C@H](CO)NC(=O)[C@@H](NC(=O)[C@H](CCC(=O)O)NC(=O)[C@H](CO)NC(=O)[C@H](CO)NC(=O)[C@](C)(Cc1ccccc1)NC(=O)[C@H](CO)NC(=O)CNC(=O)[C@H](CCC(=O)O)NC(=O)C(C)(C)NC(=O)[C@@H](N)Cc1c[nH]cn1)C(C)C)C(=O)N[C@@H](C)C(=O)N[C@@](C)(Cc1ccccc1)C(=O)N[C@H](C(=O)N[C@H](C(=O)N[C@@](C)(CCCCN)C(=O)NCC(=O)NCC(N)=O)C(C)C)C(C)C` [compound 9] (H-H[Aib]EGS[αMeF]SSEVSS[αMeF]LEGEAA[αMeK]E[αMeF]IA[αMeF]VV[αMeK]GG-NH2; N-terminus assumed), the EC50 in test [1] (setting [4]), in test [1] (setting [5]), in test [2] (setting [6]) and in test [2] (setting [7]) was at least 29 nM throughout.
Turning to `CC[C@H](C)[C@H](NC(=O)[C@](C)(Cc1ccccc1)NC(=O)[C@H](CCC(=O)O)NC(=O)[C@](C)(CCCCN)NC(=O)[C@H](C)NC(=O)[C@H](C)NC(=O)[C@H](CCC(=O)O)NC(=O)CNC(=O)[C@H](CCC(=O)O)NC(=O)[C@@H](NC(=O)[C@](C)(Cc1ccccc1)NC(=O)[C@H](CO)NC(=O)[C@H](CO)NC(=O)[C@@H](NC(=O)[C@H](CC(=O)O)NC(=O)[C@H](CO)NC(=O)[C@@H](NC(=O)[C@](C)(Cc1ccccc1)NC(=O)[C@H](CO)NC(=O)CNC(=O)[C@H](CCC(=O)O)NC(=O)C(C)(C)NC(=O)[C@@H](N)Cc1c[nH]cn1)[C@@H](C)O)C(C)C)C(C)C)C(=O)N[C@@H](C)C(=O)N[C@@](C)(Cc1ccccc1)C(=O)N[C@H](C(=O)N[C@H](C(=O)N[C@@](C)(CCCCN)C(=O)NCC(=O)NCC(N)=O)C(C)C)C(C)C` [compound 10] (H-H[Aib]EGS[αMeF]TSDVSS[αMeF]VEGEAA[αMeK]E[αMeF]IA[αMeF]VV[αMeK]GG-NH2; N-terminus assumed), the EC50 in test [1] (setting [4]), in test [1] (setting [5]), in test [2] (setting [6]) and in test [2] (setting [7]) was at least 100 nM each time.
With `CC(C)[C@H](NC(=O)[C@H](CCC(=O)O)NC(=O)[C@H](CO)NC(=O)[C@H](CO)NC(=O)[C@](C)(Cc1ccccc1)NC(=O)[C@H](CO)NC(=O)CNC(=O)[C@H](CCC(=O)O)NC(=O)C(C)(C)NC(=O)[C@@H](N)Cc1c[nH]cn1)C(=O)N[C@@H](CO)C(=O)N[C@@H](CO)C(=O)N[C@@](C)(Cc1ccccc1)C(=O)N[C@H](C(=O)N[C@@H](CCC(=O)O)C(=O)NCC(=O)N[C@@H](CCC(=O)O)C(=O)N[C@@H](C)C(=O)N[C@@H](C)C(=O)N[C@@](C)(CCCCN)C(=O)N[C@@H](CCC(=O)O)C(=O)N[C@@](C)(Cc1ccccc1)C(=O)N[C@H](C(=O)N[C@@H](C)C(=O)N[C@@](C)(Cc1ccccc1)C(=O)N[C@H](C(=O)N[C@H](C(=O)N[C@@](C)(CCCCN)C(=O)NCC(=O)NCC(N)=O)C(C)C)C(C)C)C(C)C)C(C)C` [compound 12] (H-H[Aib]EGS[αMeF]SSEVSS[αMeF]VEGEAA[αMeK]E[αMeF]VA[αMeF]VV[αMeK]GG-NH2), the EC50 stood at 45 nM in test [1] (setting [4]), 45 nM in test [1] (setting [5]), 10 nM in test [2] (setting [6]) and 13 nM in test [2] (setting [7]).
On to `CC[C@H](C)[C@H](NC(=O)[C@H](Cc1ccccc1)NC(=O)[C@H](CCC(=O)O)NC(=O)[C@H](CCCCN)NC(=O)[C@H](C)NC(=O)[C@H](C)NC(=O)[C@H](CCC(N)=O)NC(=O)CNC(=O)[C@H](CCC(=O)O)NC(=O)[C@H](CC(C)C)NC(=O)[C@H](Cc1ccc(O)cc1)NC(=O)[C@H](CO)NC(=O)[C@H](CO)NC(=O)[C@@H](NC(=O)[C@H](CC(=O)O)NC(=O)[C@](C)(CO)NC(=O)[C@@H](NC(=O)[C@H](Cc1ccccc1)NC(=O)[C@@H](NC(=O)CNC(=O)[C@H](CCC(=O)O)NC(=O)C(C)(C)NC(=O)[C@@H](N)Cc1c[nH]cn1)[C@@H](C)O)[C@@H](C)O)C(C)C)C(=O)N[C@@H](C)C(=O)N[C@@H](Cc1c[nH]c2ccccc12)C(=O)N[C@@H](CC(C)C)C(=O)N[C@H](C(=O)N[C@@H](CCCCN)C(=O)NCC(=O)N[C@@H](CCCNC(=N)N)C(N)=O)C(C)C` [compound 19], for which the EC50 in test [1] (setting [4]), in test [1] (setting [5]), in test [2] (setting [6]) and in test [2] (setting [7]) was at least 130 nM each time.
As to `CC[C@H](C)[C@H](NC(=O)[C@H](Cc1ccccc1)NC(=O)[C@H](CCC(=O)O)NC(=O)[C@H](CCCCN)NC(=O)[C@H](C)NC(=O)[C@H](C)NC(=O)[C@H](CCC(N)=O)NC(=O)CNC(=O)[C@H](CCC(=O)O)NC(=O)[C@H](CC(C)C)NC(=O)[C@H](Cc1ccc(O)cc1)NC(=O)[C@H](CO)NC(=O)[C@](C)(CO)NC(=O)[C@@H](NC(=O)[C@H](CC(=O)O)NC(=O)[C@H](CO)NC(=O)[C@@H](NC(=O)[C@H](Cc1ccccc1)NC(=O)[C@@H](NC(=O)CNC(=O)[C@H](CCC(=O)O)NC(=O)C(C)(C)NC(=O)[C@@H](N)Cc1c[nH]cn1)[C@@H](C)O)[C@@H](C)O)C(C)C)C(=O)N[C@@H](C)C(=O)N[C@@H](Cc1c[nH]c2ccccc12)C(=O)N[C@@H](CC(C)C)C(=O)N[C@H](C(=O)N[C@@H](CCCCN)C(=O)NCC(=O)N[C@@H](CCCNC(=N)N)C(N)=O)C(C)C` [compound 21], the EC50 in test [1] (setting [4]), in test [1] (setting [5]), in test [2] (setting [6]) and in test [2] (setting [7]) was at least 340 nM each time.
Turning to `CCCCCCCCCCCC(=O)N[C@@H](CCC(=O)NCCOCCOCC(=O)NCCOCCOCC(=O)NCCCC[C@H](NC(=O)[C@H](CC(=O)O)NC(=O)[C@H](CO)NC(=O)[C@@H](NC(=O)[C@](C)(Cc1ccccc1)NC(=O)[C@H](CO)NC(=O)CNC(=O)[C@H](CCC(=O)O)NC(=O)C(C)(C)NC(=O)[C@@H](N)Cc1c[nH]cn1)[C@@H](C)O)C(=O)N[C@@H](CO)C(=O)N[C@@H](CO)C(=O)N[C@@H](Cc1ccc(O)cc1)C(=O)N[C@@H](CC(C)C)C(=O)N[C@@H](CCC(=O)O)C(=O)NCC(=O)N[C@@H](CCC(=O)O)C(=O)N[C@@H](C)C(=O)N[C@@H](C)C(=O)N[C@@](C)(CCCCN)C(=O)N[C@@H](CCC(=O)O)C(=O)N[C@@H](Cc1ccccc1)C(=O)N[C@H](C(=O)N[C@@H](CCCCNC(=O)COCCOCCNC(=O)COCCOCCNC(=O)CC[C@H](NC(=O)CCCCCCCCCCC)C(=O)O)C(=O)N[C@@H](Cc1c[nH]c2ccccc12)C(=O)N[C@H](C(=O)N[C@H](C(=O)N[C@@H](CCC(=O)O)C(=O)NCC(=O)NCC(N)=O)C(C)C)C(C)C)[C@@H](C)CC)C(=O)O` [compound 256] (H-H[Aib]EGS[αMeF]TSDK([AEEA-AEEA-γGlu-Lauroyl])SSYLEGEAA[αMeK]EFIK([AEEA-AEEA-γGlu-Lauroyl])WVVEGG-NH2), the concentration for a half-maximal effect (EC50) in test [3] (setting [8]) stood at 7.5 pM; in test [3] (setting [9]), 9.46 pM; in test [3] (setting [10]), 5.57 pM.
Take `CCCCCCCCCCCC(=O)N[C@@H](CCC(=O)NCCOCCOCC(=O)NCCOCCOCC(=O)NCCCC[C@H](NC(=O)[C@H](CC(=O)O)NC(=O)[C@H](CO)NC(=O)[C@@H](NC(=O)[C@](C)(Cc1ccccc1)NC(=O)[C@H](CO)NC(=O)CNC(=O)[C@H](CCC(=O)O)NC(=O)C(C)(C)NC(=O)[C@@H](N)Cc1c[nH]cn1)[C@@H](C)O)C(=O)N[C@@H](CO)C(=O)N[C@@H](CO)C(=O)N[C@@H](Cc1ccc(O)cc1)C(=O)N[C@@H](CC(C)C)C(=O)N[C@@H](CCC(=O)O)C(=O)NCC(=O)N[C@@H](CCC(=O)O)C(=O)N[C@@H](C)C(=O)N[C@@H](C)C(=O)N[C@@](C)(CCCCN)C(=O)N[C@@H](CCC(=O)O)C(=O)N[C@@H](Cc1ccccc1)C(=O)N[C@H](C(=O)N[C@@H](C)C(=O)N[C@@H](Cc1c[nH]c2ccccc12)C(=O)N[C@@H](CCCCNC(=O)COCCOCCNC(=O)COCCOCCNC(=O)CC[C@H](NC(=O)CCCCCCCCCCC)C(=O)O)C(=O)N[C@H](C(=O)N[C@@H](CCC(=O)O)C(=O)NCC(=O)NCC(N)=O)C(C)C)[C@@H](C)CC)C(=O)O` [compound 258] (H-H[Aib]EGS[αMeF]TSDK([AEEA-AEEA-γGlu-Lauroyl])SSYLEGEAA[αMeK]EFIAWK([AEEA-AEEA-γGlu-Lauroyl])VEGG-NH2; N-terminus assumed): the EC50 in test [3] (setting [8]) stood at 92.3 pM; in test [3] (setting [9]) it was 59.6 pM; in test [3] (setting [10]) it was 125 pM.
